Measurements taken from patent publication US20240166589A1, “METHOD FOR PRODUCING FORM-II TYPE REDUCED COENZYME Q10 CRYSTAL OR CRYSTALLINE SOLID OF SAME, AND CRYSTALLIZING APPARATUS” (KANEKA CORPORATION, priority 2021, published 2024).

Assays:
[1] = Oxidation stability (relative percentage of QH) after open storage in a constant temperature bath, HPLC; assay type: physicochemical; conditions: open system, 1 month, relative to initial reduced coenzyme Q10 content as 100; for Relative percentage of QH (25° C., 1M): 25° C. and RH 60%; for Relative percentage of QH (40° C., 1M): 40° C. and RH 75%
Procedure: The oxidation stability of the reduced coenzyme Q10 crystals obtained in Examples was evaluated by the following method.
The reduced coenzyme Q10 crystals obtained in Examples were stored in an open system for one month in a constant temperature bath set at 40° C. and RH (relative humidity) of 75% and at 25° C. and RH of 60% and then subjected to high-performance liquid chromatography to calculate the content ratio of reduced coenzyme Q10 (QH) and oxidized coenzyme Q10.
The oxidation stability of reduced coenzyme Q10 crystal was calculated as a relative percentage of QH by the following formula based on the relative value with the content of reduced coenzyme Q10 for the initial reduced coenzyme Q10 crystal before storage in a constant temperature bath, i.e., the content of reduced coenzyme Q10 when measured using the crystals obtained in Examples immediately after obtaining the crystals, as 100.
Relative percentage of QH (%)=Content of reduced coenzyme Q10 after storage/Content of initial reduced coenzyme Q10×100
Conditions for the high performance liquid chromatography, by which the reduced coenzyme Q10 concentration and the oxidized coenzyme Q10 concentration were measured, are shown below.
• Column: SYMMETRY C18 (manufactured by Waters); 250 mm (length), 4.6 mm (inner diameter) • Mobile phase: C2H5OH:CH3OH=4:3 (v:v) • Detection wavelength: 210 nm • Flow rate: 1 ml/min

[2] = Saturation concentration in an alcohol; assay type: physicochemical
[3] = reported in Patent Literature 4; cited from earlier work

For COc1c(O)c(C)c(C/C=C(\C)CC/C=C(\C)CC/C=C(\C)CC/C=C(\C)CC/C=C(\C)CC/C=C(\C)CC/C=C(\C)CC/C=C(\C)CC/C=C(\C)CCC=C(C)C)c(O)c1OC [Example 1, reduced coenzyme Q10], which “Relative percentage of QH (25° C., 1M)” value [1] is on record?
The value was 91.8%.

And the “Relative percentage of QH (40° C., 1M)” value [1]?
The value was 88.1%.

With COc1c(O)c(C)c(C/C=C(\C)CC/C=C(\C)CC/C=C(\C)CC/C=C(\C)CC/C=C(\C)CC/C=C(\C)CC/C=C(\C)CC/C=C(\C)CC/C=C(\C)CCC=C(C)C)c(O)c1OC [Example 2, reduced coenzyme Q10] as the compound, how does the “Relative percentage of QH (25° C., 1M)” value [1] read?
Its value is 85.1%.

And the “Relative percentage of QH (40° C., 1M)” value [1]?
Its value is 81.4%.

For COc1c(O)c(C)c(C/C=C(\C)CC/C=C(\C)CC/C=C(\C)CC/C=C(\C)CC/C=C(\C)CC/C=C(\C)CC/C=C(\C)CC/C=C(\C)CC/C=C(\C)CCC=C(C)C)c(O)c1OC [Example 3, reduced coenzyme Q10], which “Relative percentage of QH (25° C., 1M)” value [1] is on record?
The value was 89.4%.

What about the “Relative percentage of QH (40° C., 1M)” value [1] of the same compound?
Its value is 87.3%.

For COc1c(O)c(C)c(C/C=C(\C)CC/C=C(\C)CC/C=C(\C)CC/C=C(\C)CC/C=C(\C)CC/C=C(\C)CC/C=C(\C)CC/C=C(\C)CC/C=C(\C)CCC=C(C)C)c(O)c1OC [Example 4, reduced coenzyme Q10], which “Relative percentage of QH (25° C., 1M)” value [1] is on record?
Its value is 92.2%.

And the “Relative percentage of QH (40° C., 1M)” value [1]?
Its value is 90.1%.

Which “saturation concentration compared with Form I crystal” value [2] does the source give for COc1c(O)c(C)c(C/C=C(\C)CC/C=C(\C)CC/C=C(\C)CC/C=C(\C)CC/C=C(\C)CC/C=C(\C)CC/C=C(\C)CC/C=C(\C)CC/C=C(\C)CCC=C(C)C)c(O)c1OC [reduced coenzyme Q10 Form II crystal, reduced coenzyme Q10] here?
Its value is “lower than the saturation concentration of a Form I crystal”.

And the “stability compared with reduced coenzyme Q10 Form I crystal” value [3]?
Its value is “much more stable”.
